# Experimental data as given in patent publication EP1170007A1, “REMEDIES” (Takara Shuzo Co, Ltd., priority 1999, dated 2000).
# Assays:
# [1] = test system: HGF production, MRC-5 cells; experiment: Enhancement of HGF production in MRC-5 cells (ELISA); type: cell-based, Human; details: 24 hours, negative control defined as 100% (7.2 ng/ml)
# Experimental: MRC-5 cells (CCL171, Dainippon Pharmaceutical) were suspended in a DME medium (Bio Whittaker) containing 10% fetal calf serum at a concentration of 1 x 10^5 cells/ml. 500 µl of the suspension was placed into a 48-well cell culture plate. After culturing at 37°C in the presence of 5% CO2 for 24 hours, the medium was exchanged for a DME medium containing 1% fetal calf serum. Then, one of samples was added thereto. The plate was incubated for additional 24 hours. The medium was then recovered, and the amount of HGF in the culture medium was measured using Quantikine Human Hepatocyte Growth Factor (HGF) ELISA Kit (Funakoshi). The amount of HGF produced was expressed defining a negative control as 100%. In this case, the amount of HGF produced for the negative control was 7.2 ng/ml. Cyclopentenone (at a final concentration of 20, 40 or 160 µM), GM (at a final concentration of 20, 40, 80 or 160 µM), or dipropionylcyclopentenone (at a final concentration of 32 or 64 µM) was added as a sample. As a negative control, distilled water was added in the same volume as the sample. As a positive control, prostaglandin E1 was added at a final concentration of 0.01, 0.1, 1 or 10 µM.
# [2] = test system: human insulin-like growth factor-1 (h-IGF-1) production in Hs68 cells; experiment: Enhancement of h-IGF-1 production in Hs68 cells (ELISA); type: cell-based
# Experimental: (1) Human newborn foreskin […] Hs68 cells (ATCC CRL-1635) were cultured in a D-MEM medium (Bio Whittaker) containing 10% fetal calf serum (FBS; Gibco BRL) in the presence of 5% CO2 at 37°C to saturation in a culture vessel. Then, the cells were suspended in the medium at a concentration of 3 x 10^5/ml using a trypsin-EDTA solution (Bio Whittaker). 200 µl of the suspension was dispensed into each well of a 96-well microtiter plate. When the cells were almost saturated in the culture vessel after culturing for 5 days, the medium was discarded and a medium containing 4HCP at a concentration of 40, 100 or 200 µM was added thereto. The culture supernatant was recovered at intervals of 24 hours for up to 96 hours. The effect of 4HCP on enhancement of human insulin-like growth factor-1 (h-IGF-1) production in Hs68 cells was determined using ELISA-Kit for h-IGF-1 (Diagnostic System Labo).
# (2) Hs68 cells were cultured in a D-MEM medium containing 10% fetal calf serum in the presence of 5% CO2 at 37°C to saturation in a culture vessel. Then, the cells were suspended in the medium at a concentration of 3 x 10^5/ml using a trypsin-EDTA solution. 200 µl of the suspension was dispensed into each well of a 96-well microtiter plate. When the cells were almost saturated in the culture vessel after culturing for 5 to 7 days, the medium was discarded and the medium containing cyclopentenone or GM at a concentration of 0, 2.5, 5, 10 or 20 µM was added thereto. The culture supernatant was recovered at 1, 3, 6, 12, 24 or 48 hours. The effect of cyclopentenone or GM on the production (enhancement of expression) of h-IGF-1 in Hs68 cells was determined using ELISA-Kit for h-IGF-1. […] The amount of h-IGF-1 produced 6 hours after the addition was about twice the amount for the control with no addition. […] (3) Hs68 cells were cultured in a D-MEM medium containing 10% fetal calf serum in the presence of 5% CO2 at 37°C to saturation in a culture vessel. Then, the cells were suspended in the medium at a concentration of 3 x 10^5/ml using a trypsin-EDTA solution. 200 µl of the suspension was dispensed into each well of a 96-well microtiter plate. When the cells were almost saturated in the culture vessel after culturing for 5 to 7 days, the medium was discarded and the medium containing 4HCP, a compound of formula (XVIII) (4HCP-GSH) or glutathione (GSH) at a concentration of 0, 25, 50, 100 or 200 µM was added thereto. The culture supernatant was recovered at 1, 3, 6, 12, 24 or 48 hours. The effect on the production (enhancement of expression) of h-IGF-1 in Hs68 cells was determined using ELISA-Kit for h-IGF-1. As a result, when 4HCP was added at a concentration of 25 to 200 µM, h-IGF production in Hs68 cells became maximal at 1 hour and decreased thereafter as the time went by. […] Significant enhancement of h-IGF-1 production was observed when cultured for 10 to 30 minutes. […]
# mouse = experiment: Single oral dose toxicity in mouse; type: in vivo
# [3] = test system: nerve growth factor production by L-M cells; experiment: Enhancement of nerve growth factor production in L-M cells (enzyme immunoassay); type: cell-based, Rat
# Experimental: Rat fibroblast L-M cells (ATCC CCL-1.2) were suspended in a M199 medium (Gibco) containing 0.5% Bacto Peptone (Gibco) at a concentration of 1.0 x 10^5 cells/ml. 1 ml of the suspension was inoculated into each well of a 24-well plate. The cells were cultured aseptically. After culturing for 2 days, the medium was removed and substituted with a M199 medium containing 0.5% bovine serum albumin (Sigma). Then, cyclopentenone (final concentration of 1 to 25 µM), 4HCP (Aldrich) (final concentration of 12.5µM) or dipropionylcyclopentenone (final concentration of 3.1 to 9.4 µM) was added thereto. […]
# After completion of the incubation, the concentration of nerve growth factor in the culture was measured by enzyme immunoassay (NGF Emax Immuno Assay System: Promega). […]
# [4] = single dose orally administered to a mouse at 100 mg/kg
# [5] = Example 3-(3): 100 µM, cultivation time 1 hour, control 7.2
# [6] = Example 3-(3): 100 µM, cultivation time 3 hour, control 8.9
# [7] = Example 3-(3): 100 µM, cultivation time 6 hour, control 6.3
# [8] = Example 3-(3): 100 µM, cultivation time 12 hour, control 0
# [9] = Example 3-(3): 100 µM, cultivation time 24 hour, control 0
# [10] = Example 3-(3): 100 µM, cultivation time 48 hour, control 0
# [11] = Example 3-(3): 200 µM, cultivation time 1 hour, control 7.2
# [12] = Example 3-(3): 200 µM, cultivation time 3 hour, control 8.9
# [13] = Example 3-(3): 200 µM, cultivation time 6 hour, control 6.3
# [14] = Example 3-(3): 200 µM, cultivation time 12 hour, control 0
# [15] = Example 3-(3): 200 µM, cultivation time 24 hour, control 0
# [16] = Example 3-(3): 200 µM, cultivation time 48 hour, control 0
molecule,measurement,setting,value
"N[C@@H](CCC(=O)N[C@@H](CSC1C=C(O)C(=O)C1)C(=O)NCC(=O)O)C(=O)O (stereo partly shown) [GM, 2-hydroxy-4-glutathion-S-yl-2-cyclopenten-1-one]",Increase in HGF production,[1]; 20 µM,154%
same,Increase in HGF production,[1]; 40 µM,179%
same,Increase in HGF production,[1]; 80 µM,243%
same,Increase in HGF production,[1]; 160 µM,319%
same,production of h-IGF-1 in Hs68 cells (result in words),[2]; Example 3-(2): 10 to 20 µM,production of h-IGF in Hs68 cells was observed 3 hours after the addition
same,amount of h-IGF-1 produced relative to the control with no addition,"[2]; Example 3-(2): 10 to 20 µM, 6 hours after the addition",about twice
same,death after single oral dose,"mouse; mouse, in vivo, po, 100 mg/kg",no example of death was observed
"N[C@@H](CCC(=O)N[C@@H](CS)C(=O)NCC(=O)O)C(=O)O [glutathione, reference compound]",activity of enhancing h-IGF-1 (result in words),"[2]; Example 3-(3): glutathione alone added, 25 to 200 µM",no significant activity of enhancing h-IGF-1 was observed
O=C(OC1C=CC(=O)C1OC(=O)c1ccccc1)c1ccccc1 (stereo not shown),death after single oral dose,mouse; [4],no example of death was observed
"O=C1C=CC(O)C1 (stereo not shown) [4HCP, 4-hydroxy-2-cyclopenten-1-one]",Nerve growth factor concentration,"[3]; 12.5 µM, 24 hours, 0 µM control 0.138 (Table 2)",0.327 ng/mL
same,production of nerve growth factor by L-M cells (result in words),[3]; 24 hours incubation,enhanced the production of nerve growth factor by L-M cells in a concentration-dependent manner
same,Activity of enhancing h-IGF-1 production,"[2]; Example 3-(1): 40 µM, cultivation time 24 hour, control 0",0 ng/mL
same,Activity of enhancing h-IGF-1 production,"[2]; Example 3-(1): 40 µM, cultivation time 48 hour, control 0",0 ng/mL
same,Activity of enhancing h-IGF-1 production,"[2]; Example 3-(1): 40 µM, cultivation time 72 hour, control 0",0 ng/mL
same,Activity of enhancing h-IGF-1 production,"[2]; Example 3-(1): 40 µM, cultivation time 96 hour, control 0",0 ng/mL
same,time at which the activity of enhancing h-IGF production in Hs68 cells became maximal,"[2]; Example 3-(1): 100 µM or more, sampled at 24, 48, 72, 96 hours",24 h
same,Activity of enhancing h-IGF-1 production,"[2]; Example 3-(1): 100 µM, cultivation time 24 hour, control 0",39.9 ng/mL
same,Activity of enhancing h-IGF-1 production,"[2]; Example 3-(1): 100 µM, cultivation time 48 hour, control 0",10.0 ng/mL
same,Activity of enhancing h-IGF-1 production,"[2]; Example 3-(1): 100 µM, cultivation time 72 hour, control 0",9.6 ng/mL
same,Activity of enhancing h-IGF-1 production,"[2]; Example 3-(1): 100 µM, cultivation time 96 hour, control 0",4.4 ng/mL
same,Activity of enhancing h-IGF-1 production,"[2]; Example 3-(1): 200 µM, cultivation time 24 hour, control 0",37.9 ng/mL
same,Activity of enhancing h-IGF-1 production,"[2]; Example 3-(1): 200 µM, cultivation time 48 hour, control 0",10.4 ng/mL
same,Activity of enhancing h-IGF-1 production,"[2]; Example 3-(1): 200 µM, cultivation time 72 hour, control 0",9.9 ng/mL
same,Activity of enhancing h-IGF-1 production,"[2]; Example 3-(1): 200 µM, cultivation time 96 hour, control 0",4.2 ng/mL
same,Activity of enhancing IGF-1 production,"[2]; Example 3-(3): 25 µM, cultivation time 1 hour, control 7.2",30.6 ng/mL
same,Activity of enhancing IGF-1 production,"[2]; Example 3-(3): 25 µM, cultivation time 3 hour, control 8.9",29.5 ng/mL
same,Activity of enhancing IGF-1 production,"[2]; Example 3-(3): 25 µM, cultivation time 6 hour, control 6.3",9.6 ng/mL
same,Activity of enhancing IGF-1 production,"[2]; Example 3-(3): 25 µM, cultivation time 12 hour, control 0",0 ng/mL
same,Activity of enhancing IGF-1 production,"[2]; Example 3-(3): 25 µM, cultivation time 24 hour, control 0",0 ng/mL
same,Activity of enhancing IGF-1 production,"[2]; Example 3-(3): 25 µM, cultivation time 48 hour, control 0",0 ng/mL
same,Activity of enhancing IGF-1 production,"[2]; Example 3-(3): 50 µM, cultivation time 1 hour, control 7.2",49.5 ng/mL
same,Activity of enhancing IGF-1 production,"[2]; Example 3-(3): 50 µM, cultivation time 3 hour, control 8.9",42.1 ng/mL
same,Activity of enhancing IGF-1 production,"[2]; Example 3-(3): 50 µM, cultivation time 6 hour, control 6.3",27.8 ng/mL
same,Activity of enhancing IGF-1 production,"[2]; Example 3-(3): 50 µM, cultivation time 12 hour, control 0",0 ng/mL
same,Activity of enhancing IGF-1 production,"[2]; Example 3-(3): 50 µM, cultivation time 24 hour, control 0",0 ng/mL
same,Activity of enhancing IGF-1 production,"[2]; Example 3-(3): 50 µM, cultivation time 48 hour, control 0",0 ng/mL
same,expression of h-IGF-1 (result in words),"[2]; Example 3-(3): 100 µM or more, at 48 hours",expression of h-IGF-1 was observed
same,Activity of enhancing IGF-1 production,[2]; [5],52.8 ng/mL
same,Activity of enhancing IGF-1 production,[2]; [6],47.2 ng/mL
same,Activity of enhancing IGF-1 production,[2]; [7],31 ng/mL
same,Activity of enhancing IGF-1 production,[2]; [8],22.1 ng/mL
same,Activity of enhancing IGF-1 production,[2]; [9],25.6 ng/mL
same,Activity of enhancing IGF-1 production,[2]; [10],32 ng/mL
same,Activity of enhancing IGF-1 production,[2]; [11],59.2 ng/mL
same,Activity of enhancing IGF-1 production,[2]; [12],51.7 ng/mL
same,Activity of enhancing IGF-1 production,[2]; [13],44.4 ng/mL
same,Activity of enhancing IGF-1 production,[2]; [14],42.1 ng/mL
same,Activity of enhancing IGF-1 production,[2]; [15],50.3 ng/mL
same,Activity of enhancing IGF-1 production,[2]; [16],50.2 ng/mL
same,time at which h-IGF production in Hs68 cells became maximal,"[2]; Example 3-(3): 25 to 200 µM, sampled at 1 to 48 hours",1 h
same,death after single oral dose,"mouse; mouse, in vivo, po, 100 mg/kg",no example of death was observed
CCCCCC(=O)OC1C=CC(=O)C1OC(=O)CCCCC (stereo not shown) [dihexanoylcyclopentenone],death after single oral dose,mouse; [4],no example of death was observed
NC(CCC(=O)NC(CSC1CC(=O)CC1O)C(=O)NCC(=O)O)C(=O)O (stereo not shown) [4HCP-GSH],Activity of enhancing IGF-1 production,[2]; [5],8.4 ng/mL
same,Activity of enhancing IGF-1 production,[2]; [6],12 ng/mL
same,Activity of enhancing IGF-1 production,[2]; [7],10.6 ng/mL
same,Activity of enhancing IGF-1 production,[2]; [8],6.1 ng/mL
same,Activity of enhancing IGF-1 production,[2]; [9],6.7 ng/mL
same,Activity of enhancing IGF-1 production,[2]; [10],1.4 ng/mL
same,Activity of enhancing IGF-1 production,[2]; [11],33.3 ng/mL
same,Activity of enhancing IGF-1 production,[2]; [12],37.9 ng/mL
same,Activity of enhancing IGF-1 production,[2]; [13],24.7 ng/mL
same,Activity of enhancing IGF-1 production,[2]; [14],20.4 ng/mL
same,Activity of enhancing IGF-1 production,[2]; [15],20.9 ng/mL
same,Activity of enhancing IGF-1 production,[2]; [16],27.8 ng/mL
same,activity of enhancing h-IGF-1 (result in words),[2]; Example 3-(3): 100 to 200 µM,exhibit an activity of enhancing h-IGF-1 in a concentration-dependent manner
di-2-hexenoylcyclopentenone,death after single oral dose,mouse; [4],no example of death was observed
"CC(C)(C)OC1C=CC(=O)C1OC(C)(C)C (stereo not shown) [4,5-di-t-butylcyclopentenone ether]",death after single oral dose,"mouse; mouse, in vivo, po, 100 mg/kg",no example of death was observed
